Assay results: PubChem BioAssay AID1963842 (Molecular Pharmacology Branch, DTP, NCI, 2024)
“And” between values parts separate entries of the source, which are not always exact repeats. Equal values may be shown once.

Tested on: 677734-321-R-J1-PDC complex spheroid viability
Test: Anticancer human tumor 677734-321-R-J1-PDC patient-derived soft tissue sarcoma cell line growth inhibition [POLQ]
Conditions: for viability, T/C: stronger effect = lower value
Procedure: Multicellular complex tumor spheroid response to Polymerase (POL) inhibitors (novobiocin, ART-558, RP6685) in combination with a variety of drugs and investigational agents in selected tumor cell lines
The POL inhibitors (novobiocin, ART-558, and RP6685) were evaluated both individually and in combination with standard of care and investigational anticancer small molecules within a complex spheroid model of solid tumors. . Complex spheroids include a stromal component modeled by human endothelial cells (HUVEC) and fibroblasts modeled by human mesenchymal stem cells (MSCs). The concentration ranges selected for each drug and investigational agent were based upon clinically achievable concentrations if the clinical Cmax of the agent was known.
Compounds. The drugs and investigational agents: novobiocin (NSC847541), ART-558 (NSC835418), RP-6685 (NSC848927), peposertib (NSC802822), ceralasertib (NSC780249), elimusertib (NSC800525), camonsertib (NSC841442), AZD-1390 (NSC803789), olaparib (NSC753686), talazoparib (NSC767125), rucaparib (NSC756644), sotorasib (NSC818433), MRTX-1133 (NSC836407), SN-38 (NSC673596), topotecan (NSC609699), epotoside (NSC141540), doxorubicin (NSC123127), gemcitabine (NSC613327), 5-fluorouracil (NSC19893), paclitaxel (NSC125973), vemurafenib (NSC761431), MSA-2 (NSC828583), SN-011 (NSC837082), adavosertib (NSC754352), prexasertib (NSC758257), carboplatin (NSC241240) and oxaliplatin (NSC266046), were obtained from the National Cancer Institute (NCI) Developmental Therapeutics Program Chemical Repository (21). The FDA-approved anticancer drug set is available from the Developmental Therapeutics Program at https://dtp.cancer.gov/organization/dscb/obtaining/. […] The stock solutions were prepared in dimethyl sulfoxide (DMSO, Sigma-Aldrich, St. Louis, MO, cat. D2650), except for the platinum compounds which were prepared in saline (Quality Biological, Gaithersburg, MD, cat. 114-055-101), at 800-fold the tested concentration and stored at -70 degrees C prior to their use. All drugs and investigational agents were tested over a range starting from a high concentration at or near the clinical Cmax and decreasing in half-log increments. If the clinical Cmax for an agent had not been determined, the highest concentration tested was 10 microM, except for SN-38, which was tested at a high concentration of 1 microM.
Cell Culture. All cells were maintained in an incubator at 37 degrees C and 5% CO2 with 95% humidity. The PDC lines were cultured according to standard operating procedures established by the NCI PDMR (https://pdmr.cancer.gov). Table 3 of the manuscript, lists the cell lines along with the number of the three cell types plated to form the mct-spheroids and media for tumor cell growth. After thawing, all PDC lines, except 997537-175-T-J1-PDC and 415267-285-R-J2-PDC, were cultured in Matrigel-coated flasks prepared with a working solution of 1X Ham's F-12 nutrient mix, without supplementation (Thermo Fisher Scientific, cat. 11765054), 100 U/mL penicillin-streptomycin (Thermo Fisher Scientific, cat. 15140122), and 2.5% Matrigel (Corning Inc., Corning, NY, cat. 354248) for the first three passages. The two PDC lines 997537-175-T-J1-PDC and 415267-285-R-J2-PDC were cultured on uncoated flasks. The 857933-349-R-J2-PDC line was cultured in 6C/Colon 1B media containing advanced DMEM/F-12 (Thermo Fisher Scientific, cat. 12634028), 10 mM HEPES (Thermo Fisher Scientific, cat. 15630080), 1X GlutaMAX supplement (Thermo Fisher Scientific, cat. 35050061), 0.1 mg/mL primocin (InvivoGen, San Diego, CA, cat. ant-pm-2), 10% defined fetal bovine serum, heat inactivated (HyClone Laboratories Inc., Logan, UT, cat. SH30070.03HI), 50% L-WRN conditioned media (ATCC, cat. CRL-3276), 1.25 mM N-Acetyl-L-cysteine (Sigma-Aldrich, cat. A9165), 10 mM nicotinamide (Sigma-Aldrich, cat. N0636), 1X B-27 supplement (Thermo Fisher Scientific, cat. 17504044), 1X N-2 supplement (Thermo Fisher Scientific, cat. […]

[1] = curve of first compound, second compound 0.0316 µM
[2] = curve of first compound, second compound 0.1 µM
[3] = curve of first compound, second compound 0.316 µM
[4] = curve of first compound, second compound 1 µM
[5] = curve of first compound, second compound 3.16 µM
[6] = curve of first compound, second compound 10 µM
[7] = second compound 0.0316 µM, first compound 0.0316 µM
[8] = second compound 0.0316 µM, first compound 0.1 µM
[9] = second compound 0.0316 µM, first compound 0.316 µM
[10] = second compound 0.0316 µM, first compound 1 µM
[11] = second compound 0.1 µM, first compound 0.0316 µM
[12] = second compound 0.1 µM, first compound 0.1 µM
[13] = second compound 0.1 µM, first compound 0.316 µM
[14] = second compound 0.1 µM, first compound 1 µM
[15] = second compound 0.316 µM, first compound 0.0316 µM
[16] = second compound 0.316 µM, first compound 0.1 µM
[17] = second compound 0.316 µM, first compound 0.316 µM
[18] = second compound 0.316 µM, first compound 1 µM
[19] = second compound 1 µM, first compound 0.0316 µM
[20] = second compound 1 µM, first compound 0.1 µM
[21] = second compound 1 µM, first compound 0.316 µM
[22] = second compound 1 µM, first compound 1 µM
[23] = second compound 3.16 µM, first compound 0.0316 µM
[24] = second compound 3.16 µM, first compound 0.1 µM
[25] = second compound 3.16 µM, first compound 0.316 µM
[26] = second compound 3.16 µM, first compound 1 µM
[27] = second compound 10 µM, first compound 0.0316 µM
[28] = second compound 10 µM, first compound 0.1 µM
[29] = second compound 10 µM, first compound 0.316 µM
[30] = second compound 10 µM, first compound 1 µM
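Note: spheroids exposed to compounds for one week.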
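Throughout, for viability, T/C: 100% = vehicle DMSO treated spheroids.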

Structure (SMILES): O=C(c1cc(Cc2n[nH]c(=O)c3ccccc23)ccc1F)N1CCN(C(=O)C2CC2)CC1 + Nc1ccc(C#CCN(C(=O)Cc2ncc(C(F)(F)F)cc2C(F)(F)F)c2ccc(F)cc2)nn1
- IC50 [1]: > 10000 nM
- IC50 [2]: > 10000 nM
- IC50 [3]: > 10000 nM
- IC50 [4]: > 10000 nM
- IC50 [5]: > 10000 nM
- IC50 [6]: > 10000 nM
- viability, T/C [7]: 97%
- viability, T/C [8]: 122%
- viability, T/C [9]: 101%
- viability, T/C [10]: 105%
- viability, T/C (second compound 0.0316 µM, first compound 3.16 µM): 88.1%
- viability, T/C (second compound 0.0316 µM, first compound 10 µM): 63.3%
- viability, T/C [11]: 110%
- viability, T/C [12]: 102%
- viability, T/C [13]: 98.6%
- viability, T/C [14]: 110%
- viability, T/C (second compound 0.1 µM, first compound 3.16 µM): 83.8%
- viability, T/C (second compound 0.1 µM, first compound 10 µM): 71.2%
- viability, T/C [15]: 110%
- viability, T/C [16]: 116%
- viability, T/C [17]: 104%
- viability, T/C [18]: 93.2%
- viability, T/C (second compound 0.316 µM, first compound 3.16 µM): 96.1%
- viability, T/C (second compound 0.316 µM, first compound 10 µM): 68.8%
- viability, T/C [19]: 109%
- viability, T/C [20]: 108%
- viability, T/C [21]: 96.5%
- viability, T/C [22]: 93%
- viability, T/C (second compound 1 µM, first compound 3.16 µM): 92.7%
- viability, T/C (second compound 1 µM, first compound 10 µM): 50.3%
- viability, T/C [23]: 123%
- viability, T/C [24]: 110%
- viability, T/C [25]: 89.4%
- viability, T/C [26]: 92.8%
- viability, T/C (second compound 3.16 µM, first compound 3.16 µM): 90.9%
- viability, T/C (second compound 3.16 µM, first compound 10 µM): 65.3%
- viability, T/C [27]: 109%
- viability, T/C [28]: 103%
- viability, T/C [29]: 103%
- viability, T/C [30]: 105%
- viability, T/C (second compound 10 µM, first compound 3.16 µM): 91.9%
- viability, T/C (second compound 10 µM, first compound 10 µM): 66.8%

Structure (SMILES): CCc1c2c(nc3ccc(O)cc13)-c1cc3c(c(=O)n1C2)COC(=O)[C@]3(O)CC + Cc1cccc(N(C)C(=O)C2C(O)CCN2c2nc(C)cc(C(F)(F)F)c2C#N)c1
- IC50 [1]: < 3.16 nM
- IC50 [2]: < 3.16 nM
- IC50 [3]: < 3.16 nM
- IC50 [4]: < 3.16 nM
- IC50 [5]: < 3.16 nM
- IC50 [6]: < 3.16 nM
- viability, T/C (second compound 0.0316 µM, first compound 0.00316 µM): 34%
- viability, T/C (second compound 0.0316 µM, first compound 0.01 µM): 20.2%
- viability, T/C [7]: 5.31%
- viability, T/C [8]: 2.32%
- viability, T/C [9]: 1.63%
- viability, T/C [10]: 1.3%
- viability, T/C (second compound 0.1 µM, first compound 0.00316 µM): 26.2%
- viability, T/C (second compound 0.1 µM, first compound 0.01 µM): 15.4%
- viability, T/C [11]: 5.43%
- viability, T/C [12]: 2.52%
- viability, T/C [13]: 1.76%
- viability, T/C [14]: 2.63%
- viability, T/C (second compound 0.316 µM, first compound 0.00316 µM): 28%
- viability, T/C (second compound 0.316 µM, first compound 0.01 µM): 18.8%
- viability, T/C [15]: 4.71%
- viability, T/C [16]: 2.82%
- viability, T/C [17]: 1.97%
- viability, T/C [18]: 2.54%
- viability, T/C (second compound 1 µM, first compound 0.00316 µM): 30.3%
- viability, T/C (second compound 1 µM, first compound 0.01 µM): 15.7%
- viability, T/C [19]: 5.16%
- viability, T/C [20]: 2.53%
- viability, T/C [21]: 1.97%
- viability, T/C [22]: 2.5%
- viability, T/C (second compound 3.16 µM, first compound 0.00316 µM): 36.4%
- viability, T/C (second compound 3.16 µM, first compound 0.01 µM): 13.5%
- viability, T/C [23]: 4.68%
- viability, T/C [24]: 2.35%
- viability, T/C [25]: 2.92%
- viability, T/C [26]: 1.89%
- viability, T/C (second compound 10 µM, first compound 0.00316 µM): 28.2%
- viability, T/C (second compound 10 µM, first compound 0.01 µM): 15.4%
- viability, T/C [27]: 5.22%
- viability, T/C [28]: 3.2%
- viability, T/C [29]: 3.11%
- viability, T/C [30]: 1.34%

Structure (SMILES): COc1cc(C2c3cc4c(cc3C(OC3OC5COC(C)OC5C(O)C3O)C3COC(=O)C23)OCO4)cc(OC)c1O (stereo not drawn)
- viability, T/C (compound 0.0316 µM): 104% and 100% and 109%
- viability, T/C (compound 0.1 µM): 89.1% and 82.7% and 89.3%
- viability, T/C (compound 0.316 µM): 62.1% and 53.5% and 58%
- viability, T/C (compound 1 µM): 57.5% and 29.2% and 48.4%
- viability, T/C (compound 3.16 µM): 31.5% and 19.5% and 25.9%
- viability, T/C (compound 10 µM): 8.04% and 9.9% and 10.2%
- IC50 (curve of compound): 970 nM and 385 nM and 706 nM

Structure (SMILES): CCc1cc2c(N3CCc4c(cc(Cn5ccnc5)cc4-c4cn(C)nc4C(F)(F)F)C3=O)ccnc2c(OC)n1
- viability, T/C (compound 0.0316 µM): 108% and 98.5% and 105%
- viability, T/C (compound 0.1 µM): 109% (2×) and 102%
- viability, T/C (compound 0.316 µM): 98% and 85.5% and 106%
- viability, T/C (compound 1 µM): 100% and 93.7% and 73.7%
- viability, T/C (compound 3.16 µM): 92.4% and 69% and 64.4%
- viability, T/C (compound 10 µM): 63.6% and 50.2% and 39.2%
- IC50 (curve of compound): > 10000 nM and 5580 nM
